# Test results as given in patent publication US6737383B1, “Herbicidal oxadiazolidines” (priority 1999, dated 2004).
# How the values were obtained:
# [1] = system: rape; test: Test B pre/postemergence rape; type: in vivo, Brassica napus
# Method in brief: (§1)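 Test chemicals in a non-phytotoxic solvent mixture with surfactant were sprayed preemergence onto planted seeds and postemergence onto plants 2 to 18 cm tall (1- to 4-leaf stage). After twelve to sixteen days in a greenhouse, injury was visually rated against untreated controls from 0 (no effect) to 10 (complete control).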
# [2] = system: duck salad; test: Test B flood test duck salad; type: in vivo, Heteranthera limosa
# Method in brief: (§2)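 Read-out is a visual response score from 0 (no effect) to 10 (complete control), assigned by comparison with untreated controls. Treatment was applied at the 2-leaf stage, and plants stayed in the greenhouse for twelve to sixteen days before scoring.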
# [3] = system: sugar beet; test: Test B pre/postemergence sugar beet; type: in vivo, Beta vulgaris
# Method in brief: as §1
# [4] = system: giant foxtail; test: Test B pre/postemergence giant foxtail; type: in vivo, Setaria faberii
# Method in brief: as §1
# [5] = system: purple nutsedge; test: Test B pre/postemergence purple nutsedge; type: in vivo, Cyperus rotundus
# Method in brief: as §1
# [6] = system: morningglory; test: Test B pre/postemergence morningglory; type: in vivo, Ipomoea hederacea
# Method in brief: as §1
# [7] = system: velvetleaf; test: Test B pre/postemergence velvetleaf; type: in vivo, Abutilon theophrasti
# Method in brief: as §1
# [8] = system: pigweed; test: Test B pre/postemergence pigweed; type: in vivo, Amaranthus retroflexus
# Method in brief: as §1
# [9] = system: soybean; test: Test B pre/postemergence soybean; type: in vivo, Glycine max
# Method in brief: as §1
# [10] = system: cocklebur; test: Test B pre/postemergence cocklebur; type: in vivo, Xanthium strumarium
# Method in brief: as §1
# [11] = system: crabgrass; test: Test B pre/postemergence crabgrass; type: in vivo, Digitaria sanguinalis
# Method in brief: as §1
# [12] = system: wild oat; test: Test B pre/postemergence wild oat; type: in vivo, Avena fatua
# Method in brief: as §1
# [13] = system: blackgrass; test: Test B pre/postemergence blackgrass; type: in vivo, Alopecurus myosuroides
# Method in brief: as §1
# [14] = system: rice; test: Test B flood test rice; type: in vivo, Oryza sativa
# Method in brief: as §2
# [15] = system: surinam grass; test: Test B pre/postemergence surinam grass; type: in vivo, Brachiaria decumbens
# Method in brief: as §1
# [16] = system: corn; test: Test B pre/postemergence corn; type: in vivo, Zea mays
# Method in brief: as §1
# [17] = Postemergence, Rate 125 g/ha, scale of 0 to 10 where 0 is no effect and 10 is complete control
# [18] = Postemergence, Rate 250 g/ha, scale of 0 to 10, 0 is no effect, 10 is complete control
# [19] = Postemergence, Rate 500 g/ha, scale of 0 to 10 where 0 is no effect and 10 is complete control
# [20] = Postemergence, Rate 1000 g/ha, scale 0 to 10 (0 no effect, 10 complete control)
# [21] = Preemergence, Rate 125 g/ha, scale of 0 to 10 where 0 is no effect and 10 is complete control
# [22] = Preemergence, Rate 500 g/ha, scale of 0 to 10 where 0 is no effect and 10 is complete control
# [23] = Rate 1000 g/ha, Preemergence, scale 0 to 10 (0 no effect, 10 complete control)
# [24] = Pre-emergence, Rate 1000 g/ha, scale 0 to 10 (0 no effect, 10 complete control)
# [25] = Rate 125 g/ha, under heading Pre-emergence, flood test species, visual evaluation after twelve to sixteen days
# [26] = Rate 250 g/ha, Pre-emergence (flood test species), scale 0 to 10, 0 is no effect, 10 is complete control
# [27] = Rate 500 g/ha, Pre-emergence section of Table B, 0 to 10 scale (0 no effect, 10 complete control)
smiles,measurement,setting,value
CCOP(=O)(Cn1c(=O)on(C(=O)N(c2ccc(Cl)cc2)C(C)C)c1=O)OCC [Compound 599],"Plant response rating, Rape",[1]; [17],0
same,Rape plant response rating,[1]; [18],0
same,"Plant response rating, Rape",[1]; [19],0
same,Rape plant response rating,[1]; [20],0
same,Rape plant response rating,[1]; [21],0
same,"Plant response rating, Rape",[1]; [22],0
same,"Plant response rating, Rape",[1]; [23],3
same,Ducksalad plant response rating,[2]; [24],0
same,"Ducksalad plant response rating (0 to 10 scale, 0 is no effect, 10 is complete control)",[2]; [25],0
same,Ducksalad plant response rating,[2]; [26],0
same,Ducksalad plant response rating,[2]; [27],0
same,"Plant response rating, Sugarbeets",[3]; [17],0
same,Sugarbeets plant response rating,[3]; [18],0
same,"Plant response rating, Sugarbeets",[3]; [19],0
same,Sugarbeets plant response rating,[3]; [20],0
same,Sugarbeets plant response rating,[3]; [21],0
same,"Plant response rating, Sugarbeets",[3]; [23],2
same,"Plant response rating, Giant foxtail",[4]; [17],0
same,Giant foxtail plant response rating,[4]; [18],0
same,"Plant response rating, Giant foxtail",[4]; [19],0
same,Giant foxtail plant response rating,[4]; [20],4
same,Giant foxtail plant response rating,[4]; [21],9
same,"Plant response rating, Giant foxtail",[4]; [22],10
same,"Plant response rating, Giant foxtail",[4]; [23],10
same,"Plant response rating, Nutsedge",[5]; [19],0
same,Nutsedge plant response rating,[5]; [20],0
same,Nutsedge plant response rating,[5]; [21],0
same,"Plant response rating, Nutsedge",[5]; [22],0
same,"Plant response rating, Nutsedge",[5]; [23],0
same,"Plant response rating, Morningglory",[6]; [17],1
same,Morningglory plant response rating,[6]; [18],1
same,"Plant response rating, Morningglory",[6]; [19],6
same,Morningglory plant response rating,[6]; [20],6
same,Morningglory plant response rating,[6]; [21],0
same,"Plant response rating, Morningglory",[6]; [22],0
same,"Plant response rating, Morningglory",[6]; [23],0
same,"Plant response rating, Velvetleaf",[7]; [17],0
same,Velvetleaf plant response rating,[7]; [18],0
same,"Plant response rating, Velvetleaf",[7]; [19],0
same,Velvetleaf plant response rating,[7]; [20],3
same,Velvetleaf plant response rating,[7]; [21],0
same,"Plant response rating, Velvetleaf",[7]; [22],0
same,"Plant response rating, Velvetleaf",[7]; [23],0
same,"Plant response rating, Redroot pigweed",[8]; [17],0
same,Redroot pigweed plant response rating,[8]; [18],0
same,"Plant response rating, Redroot pigweed",[8]; [19],0
same,Redroot pigweed plant response rating,[8]; [20],0
same,Redroot pigweed plant response rating,[8]; [21],0
same,"Plant response rating, Redroot pigweed",[8]; [22],0
same,"Plant response rating, Redroot pigweed",[8]; [23],4
same,"Plant response rating, Soybean",[9]; [17],2
same,Soybean plant response rating,[9]; [18],2
same,"Plant response rating, Soybean",[9]; [19],2
same,Soybean plant response rating,[9]; [20],4
same,Soybean plant response rating,[9]; [21],0
same,"Plant response rating, Soybean",[9]; [22],0
same,"Plant response rating, Soybean",[9]; [23],0
same,"Plant response rating, Cocklebur",[10]; [17],0
same,Cocklebur plant response rating,[10]; [18],0
same,"Plant response rating, Cocklebur",[10]; [19],0
same,Cocklebur plant response rating,[10]; [20],0
same,Cocklebur plant response rating,[10]; [21],0
same,Cocklebur plant response rating (0 to 10 scale),"[10]; Preemergence, Rate 250 g/ha",0
same,"Plant response rating, Cocklebur",[10]; [22],0
same,"Plant response rating, Cocklebur",[10]; [23],3
same,"Plant response rating, Crabgrass",[11]; [17],0
same,Crabgrass plant response rating,[11]; [18],0
same,"Plant response rating, Crabgrass",[11]; [19],0
same,Crabgrass plant response rating,[11]; [20],0
same,Crabgrass plant response rating,[11]; [21],3
same,"Plant response rating, Crabgrass",[11]; [22],8
same,"Plant response rating, Crabgrass",[11]; [23],8
same,"Plant response rating, Wild oats",[12]; [17],0
same,Wild oats plant response rating,[12]; [18],0
same,"Plant response rating, Wild oats",[12]; [19],0
same,Wild oats plant response rating,[12]; [20],0
same,Wild oats plant response rating,[12]; [21],0
same,"Plant response rating, Wild oats",[12]; [22],0
same,"Plant response rating, Wild oats",[12]; [23],0
same,"Plant response rating, Blackgrass",[13]; [17],0
same,Blackgrass plant response rating,[13]; [18],0
same,"Plant response rating, Blackgrass",[13]; [19],0
same,Blackgrass plant response rating,[13]; [20],6
same,Blackgrass plant response rating,[13]; [21],0
same,Blackgrass plant response rating (0 to 10 scale),"[13]; Preemergence, Rate 250 g/ha",3
same,Blackgrass plant response rating,[13]; [22],6
same,"Plant response rating, Blackgrass",[13]; [23],8
same,Rice plant response rating,[14]; [24],0
same,"Rice plant response rating (0 to 10 scale, 0 is no effect, 10 is complete control)",[14]; [25],0
same,Rice plant response rating,[14]; [26],0
same,Rice plant response rating,[14]; [27],0
same,"Plant response rating, B. signalgrass",[15]; [17],0
same,B. signalgrass plant response rating,[15]; [18],0
same,"Plant response rating, B. signalgrass",[15]; [19],0
same,B. signalgrass plant response rating,[15]; [20],0
same,B. signalgrass plant response rating,[15]; [21],2
same,"B. signalgrass plant response rating (0 to 10 scale, 0 is no effect, 10 is complete control)","[15]; Preemergence, Rate 250 g/ha",2
same,B. signalgrass plant response rating,[15]; [22],3
same,"Plant response rating, B. signalgrass",[15]; [23],3
same,"Plant response rating, Corn",[16]; [17],0
same,Corn plant response rating,[16]; [18],0
same,"Plant response rating, Corn",[16]; [19],0
same,Corn plant response rating,[16]; [20],0
same,Corn plant response rating,[16]; [21],0
same,Corn plant response rating (0 to 10 scale),"[16]; Preemergence, Rate 250 g/ha",0
same,"Plant response rating, Corn",[16]; [22],0
same,"Plant response rating, Corn",[16]; [23],0
